Assay results published in the supplement of paper PMC5908809.

Tests used:
[1] = system: normal NK cells expanded with K562-aAPC; assay: drug sensitivity score (DSS) (DSS units); higher = more sensitive; extreme values may be limits of the assay; settings: 72 h; IL-2 2.5 ng/mL
Description: (§1)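 Drug sensitivity and resistance testing on K562-aAPC-expanded normal NK cells: 5 concentrations (10-fold steps over a 10,000-fold range), 72 h at 37 °C, viability by CellTiter-Glo normalised to DMSO and benzethonium chloride controls; DSS from the fitted curve.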

[2] = system: NKL (IL-2 2.5 ng/mL); assay: percent inhibition of viability; higher = more inhibition; settings: 72 h
[3] = system: NK-92 (IL-2 2.5 ng/mL); assay: as above; settings: 72 h
[4] = system: DERL-7 (IL-2 2.5 ng/mL); assay: as above; settings: 72 h
[5] = system: normal primary NK cells, pool 1 (3 donors) (IL-2 2.5 ng/mL); assay: as above; settings: 72 h
[6] = system: YT (IL-2 2.5 ng/mL); assay: as above; settings: 72 h
[7] = system: SNK-6 (IL-2 2.5 ng/mL); assay: as above; settings: 72 h
[8] = system: KAI3 (IL-2 2.5 ng/mL); assay: as above; settings: 72 h
[9] = system: normal primary NK cells, pool 1 (3 donors), resting (IL-2 0 ng/mL); assay: as above; settings: 72 h
[10] = system: normal primary NK cells, pool 3 (3 donors) (IL-2 2.5 ng/mL); assay: as above; settings: 72 h
[11] = system: IMC-1 (IL-2 20 ng/mL); assay: as above; settings: 72 h
[12] = system: NK-YS (IL-2 2.5 ng/mL); assay: as above; settings: 72 h
[13] = system: KHYG-1 (IL-2 2.5 ng/mL); assay: as above; settings: 72 h
[14] = system: normal primary NK cells, pool 2 (3 donors) (IL-2 2.5 ng/mL); assay: as above; settings: 72 h
[15] = system: normal NK cells expanded with K562-aAPC; assay: as above; settings: 72 h, IL-2 2.5 ng/mL
Description: as §1

[16] = system: NKL (IL-2 2.5 ng/mL); assay: drug sensitivity score (DSS) (DSS units); higher = more sensitive; extreme values may be limits of the assay; settings: 72 h
[17] = system: NK-92 (IL-2 2.5 ng/mL); assay: as above; settings: 72 h
[18] = system: DERL-7 (IL-2 2.5 ng/mL); assay: as above; settings: 72 h
[19] = system: normal primary NK cells, pool 1 (3 donors) (IL-2 2.5 ng/mL); assay: as above; settings: 72 h
[20] = system: YT (IL-2 2.5 ng/mL); assay: as above; settings: 72 h
[21] = system: SNK-6 (IL-2 2.5 ng/mL); assay: as above; settings: 72 h
[22] = system: KAI3 (IL-2 2.5 ng/mL); assay: as above; settings: 72 h
[23] = system: normal primary NK cells, pool 1 (3 donors), resting (IL-2 0 ng/mL); assay: as above; settings: 72 h
[24] = system: normal primary NK cells, pool 3 (3 donors) (IL-2 2.5 ng/mL); assay: as above; settings: 72 h
[25] = system: IMC-1 (IL-2 20 ng/mL); assay: as above; settings: 72 h
[26] = system: NK-YS (IL-2 2.5 ng/mL); assay: as above; settings: 72 h
[27] = system: KHYG-1 (IL-2 2.5 ng/mL); assay: as above; settings: 72 h
[28] = system: normal primary NK cells, pool 2 (3 donors) (IL-2 2.5 ng/mL); assay: as above; settings: 72 h

CCNC(=O)Nc1ccc(-c2nc3c(c(N4CCOC[C@@H]4C)n2)CCN(C2COC2)C3)cc1 [RG-7603] (max concentration tested 2500 nM)
Settings	drug sensitivity score
[1]	2.54
[16]	7.13
[17]	3.67
[18]	8.64
[19]	2.37
[20]	3.15
[21]	4.17
[22]	5.07
[23]	0.19
[24]	0
[25]	0.89
[26]	4.64
[27]	1.86
[28]	0.33

percent inhibition of viability [%]
Settings	0.25 nM	2.5 nM	25 nM	250 nM	2500 nM
[2]	-16.4	-9.21	1.54	34.9	54.6
[3]	-10.2	-10.6	-15.4	17.8	33.1
[4]	-2.9	5.17	4.85	41.4	63.4
[5]	-9.72	-0.76	9.2	14.6	21
[6]	-0.19	-2.47	-0.44	8.66	37
[7]	15	2.98	-2.03	14.2	42.2
[8]	-2.16	10.2	4.9	24.3	45.1
[9]	-10.2	-9.16	15.7	0.22	16
[10]	-5.74	-6.13	-4.3	-0.62	10.1
[11]	-2.39	-0.65	-9.05	-18.6	-57.2
[12]	-8.96	-4.62	-4.67	17.1	44.4
[13]	-4.71	-3.78	-6.03	6.5	24.9
[14]	-4.33	-4.69	-7.06	3.67	13.1
[15]	-3.77	-6.71	-1.18	12.9	25.9

N[C@@H]1CCCN(c2c(/C=C3\SC(=O)NC3=O)cccc2-c2ccccc2)C1 [AZD1208] (max concentration tested 10000 nM)
Settings	drug sensitivity score
[1]	5.29
[16]	7.1
[17]	0
[18]	9.28
[19]	3.28
[20]	0
[21]	0.26
[22]	5.48
[23]	6.52
[24]	0.17
[25]	0
[26]	2.84
[27]	1.82
[28]	1.86

percent inhibition of viability [%]
Settings	1 nM	10 nM	100 nM	1000 nM	10000 nM
[2]	-10.7	-16.5	4.37	35.7	49.5
[3]	-9.08	-8.5	-4.31	0.29	9
[4]	1.77	2.67	16.4	40.2	56.5
[5]	-8.45	-3.78	9.24	17.3	18.6
[6]	-7.46	-4.31	-0.8	3.09	7.52
[7]	-0.39	4.45	-2.55	5.71	12
[8]	-0.84	0.89	7.33	28.1	34.3
[9]	-10.1	0.65	23.9	23.6	23
[10]	-9.02	-6.59	-2.09	5.05	11.5
[11]	-4.38	-1.65	-10.7	-5.11	-8.15
[12]	-4.63	0.2	2.23	14.4	31.6
[13]	-4.34	-1.4	1.04	10.7	23.3
[14]	-5.92	-0.84	8.9	12.8	19.5
[15]	-4.31	-0.72	10.2	26	28.9

O=[N+]([O-])c1ccc2c(c1)S(=O)(=O)C=C2 [Stattic] (max concentration tested 50000 nM)
Settings	drug sensitivity score
[1]	17.4
[16]	11.8
[17]	17.3
[18]	19.4
[19]	19.9
[20]	17.3
[21]	16.6
[22]	19.9
[23]	19.4
[24]	17.1
[25]	4.71
[26]	9.96
[27]	17.5
[28]	17.7

percent inhibition of viability [%]
Settings	5 nM	50 nM	500 nM	5000 nM	50000 nM
[2]	-2.42	-9.08	-17.6	52.9	97.8
[3]	-16.4	-10.7	-9.15	100	99.3
[4]	-5.69	0.09	8.66	100	100
[5]	-14.2	-14	11.9	98.5	100
[6]	-7.41	-5.02	-6.62	99.5	99.9
[7]	4.25	-11.5	-24.7	100	100
[8]	-6.42	3	11.7	101	100
[9]	-24.1	-39.5	15.7	93.9	100
[10]	-6.16	-7.86	-9.75	99.1	101
[11]	-3.55	-2.13	-12.2	-14.1	99.9
[12]	-2.31	-3.08	-1.75	31.7	98.3
[13]	-5.88	-5.42	-4.14	99.4	99.5
[14]	-5.68	1.61	1.47	96.5	99.9
[15]	-4.23	-7.77	-7.3	100	100
